SMILES strings stand for the structures. Converted amounts (≈) assume the structure as drawn.

What all share (format): functional
Experiment [1] deals with Haemophilus influenzae. Briefly: Compound was tested for antibacterial activity against Haemophilus influenzae 351HT3 using standard broth microdilution assay.
Experiment [2] has as its system Streptococcus pyogenes. Briefly: Compound was tested for antibacterial activity against Streptococcus pyogenes 02A1UC1 using standard broth microdilution assay.
Experiment [3] concerns Streptococcus pneumoniae. Briefly: Compound was tested for antibacterial activity against Streptococcus pneumoniae 030SJ1 EryRc using standard broth microdilution assay. For orientation: Dilution methods test growth across graded concentrations, often in twofold steps.
The test system of experiment [4] is Staphylococcus aureus. Briefly: Compound was tested for antibacterial activity against Staphylococcus aureus 011UC4 using standard broth microdilution assay.
Experiment [5] has as its system Streptococcus pneumoniae. Nature of the experiment: Compound was tested for antibacterial activity against Streptococcus pneumoniae 032UC1 using standard broth microdilution assay.
For experiment [6], the system named is Escherichia coli. Briefly: Compound was tested for antibacterial activity against Escherichia coli 250 UC5 using standard broth microdilution assay.
The test system of experiment [7] is Streptococcus pneumoniae. Briefly: Compound was tested for antibacterial activity against Streptococcus pneumoniae 030SJ5i EryRi using standard broth microdilution assay.

Turning to `CC[C@H]1OC(=O)[C@H](C)C(=O)[C@H](C)[C@@H](O[C@@H]2O[C@H](C)C[C@H](N(C)C)[C@H]2O)[C@](C)(OC)C[C@@H](C)CN(C)[C@H](C)[C@@H](O)[C@]1(C)O`, the MIC in experiment [1], in experiment [2], in experiment [3], in experiment [4], in experiment [5] and in experiment [6] was 40 µg/mL (≈ 66.4 µM) in each case. Further, the MIC in experiment [7] is 40 µg/mL (≈ 66.4 µM).

Take `CC[C@H]1OC(=O)[C@H](C)[C@@H](O[C@H]2C[C@@](C)(OC)[C@@H](O)[C@H](C)O2)[C@H](C)[C@@H](O[C@@H]2O[C@H](C)C[C@H](N(C)C)[C@H]2O)[C@](C)(OC)C[C@@H](C)C2=N[C@H](C)[C@@H](O2)[C@]1(C)O`: the MIC was found to be 10 µg/mL (≈ 13.4 µM) in experiment [1]; 40 µg/mL (≈ 53.7 µM) in experiment [2]; 40 µg/mL (≈ 53.7 µM) in experiment [3]; 20 µg/mL (≈ 26.8 µM) in experiment [4]; 40 µg/mL (≈ 53.7 µM) in experiment [5]; 40 µg/mL (≈ 53.7 µM) in experiment [6]. Also, the MIC in experiment [7] stood at 40 µg/mL (≈ 53.7 µM).

With `CC[C@H]1OC(=O)[C@H](C)[C@@H](O[C@H]2C[C@@](C)(OC)[C@@H](O)[C@H](C)O2)[C@H](C)[C@@H](OC2O[C@H](C)C[C@H](N(C)C)[C@H]2O)[C@](C)(OC)C[C@@H](C)C(=O)N[C@H](C)[C@@H](O)[C@]1(C)O` (some centres not stated), the MIC worked out at 2.5 µg/mL (≈ 3.28 µM) in experiment [1]; 0.6 µg/mL (≈ 0.786 µM) in experiment [2]; 40 µg/mL (≈ 52.4 µM) in experiment [3]; 1.2 µg/mL (≈ 1.57 µM) in experiment [4]; 1.2 µg/mL (≈ 1.57 µM) in experiment [5]; 40 µg/mL (≈ 52.4 µM) in experiment [6]. The compound also came in with an MIC in experiment [7] of 10 µg/mL (≈ 13.1 µM).

In the case of `CC[C@H]1OC(=O)[C@H](C)[C@@H](O[C@H]2C[C@@](C)(OC)[C@@H](O)[C@H](C)O2)[C@H](C)[C@@H](O[C@@H]2O[C@H](C)C[C@H](N(C)C)[C@H]2O)[C@](C)(OC)C[C@@H](C)CN(C)[C@H](C)[C@@H](O)[C@]1(C)O`, the MIC is 2.5 µg/mL (≈ 3.28 µM) in experiment [1]; 0.15 µg/mL (≈ 0.197 µM) in experiment [2]; above 40 µg/mL in experiment [3]; 1.2 µg/mL (≈ 1.57 µM) in experiment [4]; 0.15 µg/mL (≈ 0.197 µM) in experiment [5]; 20 µg/mL (≈ 26.2 µM) in experiment [6]. This compound displayed an MIC in experiment [7] above 40 µg/mL.

For `CC[C@H]1OC(=O)[C@H](C)C(=O)[C@H](C)[C@@H](OC2O[C@H](C)C[C@H](N(C)C)[C@H]2O)[C@](C)(OC)C[C@@H](C)C(=O)[C@H](C)[C@H]2N(CCCCn3cnc(-c4cccnc4)c3)C(=O)O[C@]12C` (some centres not stated), the MIC in experiment [1] turned out to be 1.2 µg/mL (≈ 1.48 µM); in experiment [2], 0.02 µg/mL (≈ 0.0246 µM); in experiment [3], 0.02 µg/mL (≈ 0.0246 µM); in experiment [4], 0.04 µg/mL (≈ 0.0493 µM); in experiment [5], 0.02 µg/mL (≈ 0.0246 µM); in experiment [6] it was 10 µg/mL (≈ 12.3 µM). For the same compound, the MIC in experiment [7] is 0.02 µg/mL (≈ 0.0246 µM).

For `CC[C@H]1OC(=O)[C@H](C)[C@@H](O[C@H]2C[C@@](C)(OC)[C@@H](O)[C@H](C)O2)[C@H](C)[C@@H](O[C@@H]2O[C@H](C)C[C@H](N(C)C)[C@H]2O)[C@](C)(O)C[C@@H](C)CN(C)[C@H](C)[C@@H](O)[C@]1(C)O` [AZITHROMYCIN], the MIC in experiment [1] stood at 1.2 µg/mL (≈ 1.6 µM); in experiment [2], 0.6 µg/mL (≈ 0.801 µM); in experiment [3], 40 µg/mL (≈ 53.4 µM); in experiment [4], 0.3 µg/mL (≈ 0.401 µM); in experiment [5], 0.15 µg/mL (≈ 0.2 µM); in experiment [6], 20 µg/mL (≈ 26.7 µM). The compound also yielded an MIC in experiment [7] of 40 µg/mL (≈ 53.4 µM).

These data come from ChEMBL document CHEMBL1130953, “Synthesis of 6-O-methyl-azithromycin and its ketolide analogue via Beckmann rearrangement of 9(E)-6-O-methyl-erythromycin oxime” (1998).
